On the set-up of series [1]: method as in PMID 31244223. The note with it: previously reported ref 14; cited from earlier work.
Details of series [2]: method as in PMID 31244223. As to conditions: pooled human liver microsomes; previously reported ref 14; cited from earlier work. (In general: Liver microsomes are a subcellular fraction often used to study metabolism.)
Series [3] can be described thus: Plasma protein binding by equilibrium dialysis. Format: in vitro ADME. The note with it: 37 °C; for Plasma Protein Binding Bound %: 5 μM, 6 h; for fraction unbound at 6 h, 5 μM: plasma, read-out: Plasma Protein Binding Free %. The method, then: Equilibrium dialysis was used to determine the plasma protein binding. All of the test compounds were treated in triplicate by RED Rapid Equilibrium Dialysis Device (Thermo Scientific, Waltham, MA, USA). In brief, the initial compound concentration (5 μM) in the plasma chamber was first set, followed by the addition of phosphate buffered saline (PBS) to the receiver chamber. The Equilibrium Dialysis Device was allowed to shake for 6 h in a 37 °C incubator. Then, 25 μL solution was sampled from the plasma and PBS chambers, respectively, and they were diluted with either blank PBS or plasma to achieve a 1:1 ratio of plasma: PBS for all samples. The concentrations of the tested compounds in the plasma and PBS chambers were determined by LC–MS/MS. The fraction bound was calculated as ([plasma]—[PBS])/[plasma].

Series [4] can be described thus: Metabolic stability assay in pooled human liver microsomes. Format: in vitro ADME. The note with it: pH 7.4, 37 °C, NADPH, read-out: Half-Life in Human Hepatic Microsomes. The method, then:
Each compound was incubated in duplicate with pooled human liver microsomes at 37 °C. The tested compounds were pre-incubated with pooled human liver microsomes in phosphate buffer (pH 7.4) for 5 min in a shaking water bath at 37 °C. The reaction was initiated by adding a NADPH-generating system and incubated for 0, 15, 30, 45, and 60 min. The reaction was stopped by transferring the incubation mixture to CH3CN/MeOH. Samples were then mixed and centrifuged. Supernatants were used for HPLC–MS/MS analysis. Data were calculated as percent parent compounds remaining by assuming zero-minute time point peak area ratio (analyte/IS) as 100% and dividing remaining time point peak area ratios by the zero-minute time point peak area ratio. Data were subjected to fit a first-order decay model to calculate both the slope and half-life.

The subject of series [5] is MRSA. Format: in vivo. As to conditions: for survival rate of the infected mice: 7 days; for survival of infected mice: tracked 7 days; for survival of infected mice / mice died within 24 h: n = 5.
Series [6] deals with MSSA 2. In words: MIC determination (LB agar dilution), clinical MSSA strain 2. Format: cell-based. The note with it: Staphylococcus aureus, at least two replicates. How it is done: (§1) All of the tested compounds were prepared to different concentrations with methanol, and 150 μL of the respective methanol solution was used to mix with 15 mL LB (Luria–Bertani) medium with 1% agar in each Petri dish. Linezolid and PTM were used as reference compounds for comparison. In vitro bioassay for compounds was carried out using clinical strains of S. aureus, E. coli, and Klebsilla pneumoniae. The bacteria were cultivated in LB medium and incubated for 16 h at 37 °C, 250 rpm. The resulting bacteria were diluted to approximate 0.25 at OD600, which were further diluted 10_4-fold. The diluted bacteria (2 μL) were added to Petri dish containing the respective compounds. The resulting Petri dishes were incubated for 16 h at 37 °C. The determination of MIC is the concentration of Petri dishes with no visible growth of bacteria.

Series [7] can be described thus: Stability of A4 in LB agar. Format: physicochemical. As to conditions: 8 μg mL−1 in LB agar, 37 °C, 16 h, UPLC. How it is done:
Figure S44. Analysis of the stability of A4 from LB agar. Compound A4 (0.1 mg mL−1)
were diluted in 5 mL of LB agar (1.5% v/v) to 8 μg mL−1, and the LB agar plates were
then incubated at 37 °C for 16 h. The LB agar containing A4 was extracted by DCM (3 ×
10 mL), dried with anhydrous Na2SO4 and concentrated in vacuum. The resulting
extracts were analysed by Ultra-Performance Liquid Chromatography.
(1 picture or pasted object on this page, not shown here)

The test system of series [8] is MRSA 4. The series is described as follows: MIC determination (LB agar dilution), clinical MRSA strain 4. The series is classed as cell-based. The note with it: Staphylococcus aureus, at least two replicates. How it is done: as §1
For orientation: Agar dilution tests growth on a series of plates holding different concentrations.

In series [9] the test system is MRSA 3. The series is described as follows: MIC determination (LB agar dilution), clinical MRSA strain 3. The note with it: Staphylococcus aureus, at least two replicates. The series is classed as cell-based. The method, then:
as §1

For series [10], the system named is MSSA 1. The series is described as follows: MIC determination (LB agar dilution), clinical MSSA strain 1. Format: cell-based. As to conditions: Staphylococcus aureus, at least two replicates. The method, then: as §1
For series [11], the system named is MRSA. In words: Mouse skin infection with MRSA. Format: in vivo, BABL/c mice. As to conditions: for load of S. aureus on treated skin: n = 5/group; for healing of the infected skin: topical twice a day for 7 days, observation and H&E staining. How it is done: Mouse MRSA skin infection study was performed as described before. Female BABL/c mice (20–22 g, 7-weeks old) were anesthetized by intraperitoneal injection of 4% chloral hydrate (200 μL), and the hair of mice back surface was removed and washed with povidone iodine–propanol solution. A gauze (15 × 15 mm) was preheated in boiling water (90 °C) for 10 min, and then placed on the back of each mouse for 40 s to generate the burns. Next, the burn was bound with sterile gauze and infected with 1 × 10^8 colony-forming units (CFU) of MRSA. An open wound was witnessed at the burns after 48 h post infection. The infected mice were then divided into three groups (5 per group). A4 (200 μg) was formulated into 2% ointment consisting of 1.4% carbomer, 1.4% triethanolamine, 14% propanediol, 14% glycerinum, and 1% azone. Mupirocin (2% w/w) were used as the positive control, while vehicle used as negative control. All mice were treated twice a day for 7 days. Mice were euthanized after 24 h of the last treatment, and the wound area was slightly swabbed with 70% ethanol. Wound area (1 cm^2) was excised, homogenized, and plated onto TSB agar plates to count viable bacteria. Other skin biopsy specimens removed from the wounds were stored at 4% paraformaldehyde solution to be used for hematoxylin and eosin (HE) staining.

For series [12], the system named is S. aureus ATCC 29213. In words: MIC determination (LB agar dilution), S. aureus ATCC 29213. Format: cell-based. The note with it: Staphylococcus aureus, ATCC29213, at least two replicates. How it is done: as §1
Where [13] appears, read: 10 mg/kg intraperitoneal at 1 h and 5 h after infection.
Setting [14] is: 2 mg topical twice a day for 7 days.

Converted amounts (≈) assume the structure as drawn. Where two headings read alike, the source gives them in different places. Bounds are passed on as bounds.

As for `CCSC1CC(=O)C(C)(CCC(=O)Nc2c(O)ccc(C(=O)O)c2O)C2C3CC4CC12CC4(C)O3` (stereo not shown) [1a, PTM-2t], in series [1], the “Plasma Protein Binding Bound %” value was 35% and the “Plasma Protein Binding Free %” value was 65%. In [2], the “Half-Life in Human Hepatic Microsomes” value was 22 min.

In general, half-life refers to how long it takes for the measured level to halve. With `CC12CC34C=C(c5ccc6ccc7cccc8ccc5c6c78)C(=O)C(C)(CCC(=O)Nc5c(O)ccc(C(=O)O)c5O)C3C(CC1C4)O2` (stereo not shown) [1b, 6-pyrenyl PTM, reference compound], in [3], the “Plasma Protein Binding Bound %” value was 99.9% and the fraction unbound at 6 h, 5 μM was 0.001. Besides, in series [4], the half-life is 73 min.

The term MIC denotes the lowest concentration found to suppress growth. Read a low MIC as a more susceptible organism. Consider `CC(C)(C)OC(=O)C=CC1=CC23CC4CC(OC4(C)C2)C3C(C)(CCC(=O)Nc2c(O)ccc(C(=O)O)c2O)C1=O` (stereo not shown) [A4], for which the “survival rate of the infected mice” value turned out to be 60% in [5] (5 mg/kg intraperitoneal at 1 h and 5 h after infection); 80% in [5] (20 mg/kg intraperitoneal at 1 h and 5 h after infection); 60% in series [5] (30 mg/kg intraperitoneal at 1 h and 5 h after infection). Also, the “survival of infected mice” value turned out to be 60% in series [5] (setting [13]); 20% in series [5] (50 mg/kg intraperitoneal at 1 h and 5 h after infection). Moreover, in series [5] (30 and 50 mg/kg by oral gavage), the “survival of infected mice after oral administration” value is listed as “most of the treated mice survived within 48 h”. Moreover, the MIC in [6], in series [8], in [9], in series [10] and in series [12] was 1 µg/mL (≈ 1.76 µM) throughout. For the same compound, the “stability in LB agar” value in [7] was “relatively stable”. Moreover, the “Plasma Protein Binding Bound %” value in [3] was 98.3%. The fraction unbound at 6 h, 5 μM in [3] was 0.017. In addition, the half-life in series [4] was found to be 26 min. The “reduction of MRSA on the skin compared to untreated mice” value in [11] (setting [14]) was ~ 790 fold. Also, the “load of S. aureus on treated skin” value in series [11] (setting [14]) is “(1.0 ± 0.3) × 10^6 CFU/g”. Further, the “healing of the infected skin” value in series [11] is recorded as “showed the healing of the skin”.

Turning to `CCCCCCCCCCCCCCCCCCOC(=O)C=CC1=CC23CC4CC(OC4(C)C2)C3C(C)(CCC(=O)Nc2c(O)ccc(C(=O)O)c2O)C1=O` (stereo not shown) [A5], the minimal inhibitory concentration (MIC) in series [6], in [8], in series [9], in series [10] and in series [12] was over 64 µg/mL each time. The “Plasma Protein Binding Bound %” value in series [3] is listed as 99.2%. The fraction unbound at 6 h, 5 μM in series [3] was determined as 0.008. Besides, in [4], the half-life was determined as 76 min.

With `CC12CC34C=C(C=CC(=O)N5CCOCC5)C(=O)C(C)(CCC(=O)Nc5c(O)ccc(C(=O)O)c5O)C3C(CC1C4)O2` (stereo not shown) [A10], the MIC in [6], in [8], in series [9], in series [10] and in series [12] was 16 µg/mL (≈ 27.6 µM) in each case. In series [3], the “Plasma Protein Binding Bound %” value was found to be 77%. In addition, the fraction unbound at 6 h, 5 μM in series [3] was 0.23. Moreover, the half-life in series [4] was over 120 min.

As for `CC12CC34C=C(C#Cc5cccc(F)c5)C(=O)C(C)(CCC(=O)Nc5c(O)ccc(C(=O)O)c5O)C3C(CC1C4)O2` (stereo not shown) [B8], in series [5] (setting [13]), the “mice died within 24 h” value turned out to be 40%. Further, the minimal inhibitory concentration (MIC) in series [6], in series [8], in series [9], in series [10] and in [12] was 1 µg/mL (≈ 1.79 µM) throughout. Also, the “Plasma Protein Binding Bound %” value in [3] is listed as 99.4%. In series [3], the fraction unbound at 6 h, 5 μM amounted to 0.006. Besides, in [4], the half-life was 96 min.

As to `CC(=O)C1=C(C)OC(Cc2ccc(F)cc2)=C2C(=O)C(C)(CCC(=O)Nc3c(O)ccc(C(=O)O)c3O)C3C4CC5CC3(CC5(C)O4)C12` (stereo not shown) [C6], the MIC in [6], in series [8], in [9], in series [10] and in [12] was 32 µg/mL (≈ 48.5 µM) throughout. Besides, the “Plasma Protein Binding Bound %” value in series [3] turned out to be 99.6%. In addition, in series [3], the fraction unbound at 6 h, 5 μM was determined as 0.004. Moreover, the half-life in series [4] was 17 min.

For the compound `CC12C[C@@]34C=CC(=O)[C@@](C)(CCC(=O)Nc5c(O)ccc(C(=O)O)c5O)C3[C@H](CC1C4)O2` (stereo partly shown) [PTM, Platensimycin], the “survival of infected mice” value in series [5] (setting [13]) is reported as “died after MRSA infection within 24 h”. For the same compound, the MIC in series [6], in [8], in series [9], in series [10] and in [12] was 1 µg/mL (≈ 2.27 µM) throughout. Besides, the “Plasma Protein Binding Free %” value in series [1] is 34%. In addition, the “Half-Life in Human Hepatic Microsomes” value in series [2] was 51 min.

As for `CC12CC34C=C(I)C(=O)C(C)(CCC(=O)Nc5c(O)ccc(C(=O)O)c5O)C3C(CC1C4)O2` (stereo not shown) [compound 4, 6-iodo PTM], in series [5] (setting [13]), the “mice died within 24 h” value is recorded as 40%. Moreover, the MIC in series [6], in series [8], in series [9], in series [10] and in series [12] was 1 µg/mL (≈ 1.76 µM) throughout. Further, in series [3], the “Plasma Protein Binding Bound %” value came to 87%. In series [3], the fraction unbound at 6 h, 5 μM stood at 0.13. Also, the half-life in [4] turned out to be 58 min.

On to `C/C(=C\C(=O)OCCCCCCCCC(=O)O)C[C@@H]1OC[C@H](C[C@@H]2O[C@H]2[C@@H](C)[C@H](C)O)[C@@H](O)[C@H]1O` [mupirocin, reference compound], for which the “load of S. aureus on treated skin” value in series [11] (setting [14]) is recorded as “(6.5 ± 2.4) × 10^5 CFU/g”. In addition, in series [11], the “healing of the infected skin” value is listed as “showed the healing of the skin”.

The values above are taken from PMC9027111, “Morphing Natural Product Platensimycin via Heck, Sonogashira, and One-Pot Sonogashira/Cycloaddition Reactions to Produce Antibiotics with In Vivo Activity” (Antibiotics, 2022).
